# Measurements: patent US7132542B2, “Compounds for the treatment of male erectile dysfunction” (Bristol-Myers Squibb Company, priority 2003, dated 2006)
# What was measured:
# [1] = test system: cloned mammalian (mSlo or hSlo) BK channel; assay: Assay for BK channel openers: two-electrode voltage clamp of BK-mediated outward current in Xenopus oocytes; type: cell-based; conditions: percent increase over BK current in controls, voltage step to +140 mV, IBTX-sensitive current
# Description: The ability of the compounds of the invention to open BK channels and increase whole-cell outward (K^+) BK-mediated currents was assessed under voltage-clamp conditions by determining their ability to increase cloned mammalian (mSlo or hSlo) BK-mediated outward current heterologously expressed in Xenopus oocytes [Butler, A., et al., Science 1993, 261, 221–224; Dworetzky, S. I., et al., Mol. Brain Res. 1994, 27, 189–193; Gribkoff, V. K., et al., Mol. Pharmacol. 1996, 50, 206–217]. The two BK constructs employed represent nearly structurally identical homologous proteins, and have proven to be pharmacologically indistinguishable in our tests. To isolate BK current from native (background, non-BK) current, the specific and potent BK channel-blocking toxin iberiotoxin (IBTX) [Galvez, A., et al., J. Biol. Chem. 1990, 265, 11083–11090] was employed at a supramaximal concentration, e.g., 50–100 nanomolar (“nM”). The relative contribution of BK channel-mediated current to total outward current was determined by subtraction of the current remaining in the presence of IBTX (non-BK current) from the current profiles obtained in all other experimental conditions (control, drug, and wash) [Gribkoff, V. K. et al., Mol. Pharmacol. 1996, 50, 206–217]. […] All compounds were tested in 5–10 oocytes and are reported at the indicated concentration of 20 micromolar (“μM”) (or as otherwise indicated); the effect of the selected compounds of the invention on BK current was expressed as the percent of control IBTX-sensitive current at a single transmembrane voltage (+140 mV) and is listed in Table 1. Recordings were accomplished using standard two-electrode voltage clamp techniques [Stuhmer, W., et al., Methods in Enzymology, 1992, 207, 319–339]; voltage-clamp protocols consisted of 500–750 milliseconds (“ms”) duration step depolarizations, from a holding potential of −60 mV, to a final voltage up to +140 mV in 20 mV steps. The experimental media (modified Barth's solution) consisted of millimolar (“mM”): NaCl (88), NaHCO3 (2.4), KCl (1.0), HEPES (10), MgSO4 (0.82), Ca(NO3)2 (0.33), CaCl2 (0.41); pH 7.5.
# [2] = test system: rabbit corpus cavernosum tissue; assay: Relaxation of rabbit corpus cavernosum strips precontracted with phenylephrine; conditions: Oryctolagus cuniculus; inhibition of phenylephrine (3 μM)-induced force as compared to vehicle control; read-out: % Inhibition of force (RCC strips)
# Description: The ability of the compounds of the invention to relax rabbit corpus cavernosum tissue as a model for the treatment of erectile dysfunction is described as follows. New Zealand white rabbits (3.4–3.7 kg) were euthanized by sodium pentobarbital (100 mg/kg) overdose. The penis from each animal was rapidly removed and immersed in a cold oxygenated modified Krebs Henseleit bicarbonate buffer. The penis' outer tunica was removed and the corpus cavernosum smooth muscle obtained and cut into strips approximately 3–5 mm long. The strips were suspended in tissue baths containing physiological salt solution (see above), and allowed to equilibrate for at least one hour under resting tension of 1.0 gram. Isometric force was measured as described above. Tissue strips were stimulated with the α-agonist phenylephrine (3 μM) and allowed to reach a steady level of force prior to the addition of test compounds. The results are expressed as the percentage inhibition of phenylephrine-induced force as compared to vehicle control.
# [3] = test system: rat small intestine tissue; assay: Relaxation of rat small intestine (ileum) segments; design: concentration or dose not given beside the values; conditions: integral of nifedipine-sensitive force, 30 min post-compound addition
# Source text: The ability of the compounds of the invention to relax rat small intestine tissue as a model for the treatment of irritable bowel syndrome is described as follows. Male rats (Harlan, Sprague Dawley, 250–350 g) were sacrificed by decapitation. A portion of small intestine (ileum) was removed and the attached connective tissues and intestinal contents removed. The ileum was cut into segments of ≦1 cm in length. The segments were mounted longitudinally between fixed hooks in organ baths containing warm (37° C.) physiological salt solution (composition in mM: NaCl 118.4, KCl 4.7, KH2PO4 1.2, MgSO4 1.2, CaCl2 1.8, Glucose 10.1, NaHCO3 25; gassed with 95% O2/5% CO2, pH 7.4). A stable tension of ˜1.5 g was maintained in the tissue segments during the equilibration period of 45 minutes. Changes in muscle tension were measured with isometric force transducers (Grass, FT-03C) and recorded using AcqKnowledge data acquisition system (AcqKnowledge for MP100WS, Biopac Systems Inc., Goleta, Calif.). Compound or vehicle was added in the baths for 30 minutes. “Zero” active force was established at the end of the experiment using nifedipine (20 μM). The effects of compounds or vehicle on force was determined by measuring the integral of nifedipine-sensitive force (including resting tone and spontaneous contractions) pre- and 30 min post-compound (or vehicle) addition. Results are expressed as the percentage inhibition of force. DMSO vehicle inhibited force (integral) by −0.6±3.0% (n=25).
Compound,% MaxiK opening ([1]; at 20 μM),inhibition [2],% MaxiK opening ([1]; at 1 μM),% Inhibition of force (RSI strips) [3],% MaxiK opening ([1]; at 10 μM)
"O=C(CN1CCCC1)Nc1ccc(Sc2c(-c3cc(Cl)ccc3O)c3cc(C(F)(F)F)ccc3[nH]c2=O)cc1 [Example 6, N-[4-[[4-(5-chloro-2-hydroxyphenyl)-1,2-dihydro-2-oxo-6-(trifluoromethyl)-3-quinolinyl]thio]phenyl]-1-pyrrolidineacetamide]",291%,28%,,,
"O=C(CCN1CCN(c2ccccn2)CC1)Nc1ccc(Sc2c(-c3cc(Cl)ccc3O)c3cc(C(F)(F)F)ccc3[nH]c2=O)cc1 [Example 14, N-[4-[[4-(5-chloro-2-hydroxyphenyl)-1,2-dihydro-2-oxo-6-(trifluoromethyl)-3-quinolinyl]thio]phenyl]-4-(2-pyridinyl)-1-piperazinepropanamide]",,37%,169^⋄ %,24%,
"CN1CCN(CCC(=O)Nc2ccc(Sc3c(-c4cc(Cl)ccc4O)c4cc(C(F)(F)F)ccc4[nH]c3=O)cc2)CC1 [Example 11, N-[4-[[4-(5-chloro-2-hydroxyphenyl)-1,2-dihydro-2-oxo-6-(trifluoromethyl)-3-quinolinyl]thio]phenyl]-4-methyl-1-piperazinepropanamide]",474%,30%,,70%,
"CN(C)CCN(C)CCC(=O)Nc1ccc(Sc2c(-c3cc(Cl)ccc3O)c3cc(C(F)(F)F)ccc3[nH]c2=O)cc1 [Example 12, N-[4-[[4-(5-chloro-2-hydroxyphenyl)-1,2-dihydro-2-oxo-6-(trifluoromethyl)-3-quinolinyl]thio]phenyl]-3-[[2-(dimethylamino)ethyl]methylamino]propanamide]",489%,29%,,,
"O=C(CCCN1CCC(N2CCCCC2)CC1)Nc1ccc(Sc2c(-c3cc(Cl)ccc3O)c3cc(C(F)(F)F)ccc3[nH]c2=O)cc1 [Example 15, N-[4-[[4-(5-chloro-2-hydroxyphenyl)-1,2-dihydro-2-oxo-6-(trifluoromethyl)-3-quinolinyl]thio]phenyl]-[1,4′-bipiperidine]-1′-butanamide]",268%,,,,
"CN(C)CCN(C)CC(=O)Nc1ccc(Sc2c(-c3cc(Cl)ccc3O)c3cc(C(F)(F)F)ccc3[nH]c2=O)cc1 [Example 7, N-[4-[[4-(5-chloro-2-hydroxyphenyl)-1,2-dihydro-2-oxo-6-(trifluoromethyl)-3-quinolinyl]thio]phenyl]-2-[[2-(dimethylamino)ethyl]methylamino]acetamide]",231%,16%,,41%,
"O=C(CCCN1CCN(c2ccccn2)CC1)Nc1ccc(Sc2c(-c3cc(Cl)ccc3O)c3cc(C(F)(F)F)ccc3[nH]c2=O)cc1 [Example 16, N-[4-[[4-(5-chloro-2-hydroxyphenyl)-1,2-dihydro-2-oxo-6-(trifluoromethyl)-3-quinolinyl]thio]phenyl]-4-(2-pyridinyl)-1-piperazinebutanamide]",,37%,197^⋄ %,,
"O=C(CN1CCOCC1)Nc1ccc(Sc2c(-c3cc(Cl)ccc3O)c3cc(C(F)(F)F)ccc3[nH]c2=O)cc1 [Example 1, N-{4-[4-(5-Chloro-2-hydroxy-phenyl)-2-oxo-6-trifluoromethyl-1,2-dihydro-quinolin-3-ylsulfanyl]-phenyl}-2-morpholin-4-yl-acetamide]",,34%,296^⋄ %,51%,
"CN1CCN(CC(=O)Nc2ccc(Sc3c(-c4cc(Cl)ccc4O)c4cc(C(F)(F)F)ccc4[nH]c3=O)cc2)CC1 [Example 2, N-{4-[4-(5-Chloro-2-hydroxy-phenyl)-2-oxo-6-trifluoromethyl-1,2-dihydro-quinolin-3-ylsulfanyl]-phenyl}-2-(4-methyl-piperazin-1-yl)-acetamide]",246%,19%,,36%,
"O=C(CN1CCN(c2ccccn2)CC1)Nc1ccc(Sc2c(-c3cc(Cl)ccc3O)c3cc(C(F)(F)F)ccc3[nH]c2=O)cc1 [Example 9, N-[4-[[4-(5-chloro-2-hydroxyphenyl)-1,2-dihydro-2-oxo-6-(trifluoromethyl)-3-quinolinyl]thio]phenyl]-4-(2-pyridinyl)-1-piperazineacetamide]",,17%,,,116^⋄⋄ %
"O=C(CCN1CCOCC1)Nc1ccc(Sc2c(-c3cc(Cl)ccc3O)c3cc(C(F)(F)F)ccc3[nH]c2=O)cc1 [Example 3, N-{4-[4-(5-Chloro-2-hydroxy-phenyl)-2-oxo-6-trifluoromethyl-1,2-dihydro-quinolin-3-ylsulfanyl]-phenyl}-3-morpholin-4-yl-propionamide]",453%,22%,,50%,
"O=C(CCCN1CCCC1)Nc1ccc(Sc2c(-c3cc(Cl)ccc3O)c3cc(C(F)(F)F)ccc3[nH]c2=O)cc1 [Example 5, N-{4-[4-(5-Chloro-2-hydroxy-phenyl)-2-oxo-6-trifluoromethyl-1,2-dihydro-quinolin-3-ylsulfanyl]-phenyl}-4-pyrrolidin-1-yl-butyramide]",280%,36%,,65%,
"O=C(CN1CCC(N2CCCCC2)CC1)Nc1ccc(Sc2c(-c3cc(Cl)ccc3O)c3cc(C(F)(F)F)ccc3[nH]c2=O)cc1 [Example 8, N-[4-[[4-(5-chloro-2-hydroxyphenyl)-1,2-dihydro-2-oxo-6-(trifluoromethyl)-3-quinolinyl]thio]phenyl]-[1,4′-bipiperidine]-1′-acetamide]",283%,45%,,,
"O=C(CCN1CCCC1)Nc1ccc(Sc2c(-c3cc(Cl)ccc3O)c3cc(C(F)(F)F)ccc3[nH]c2=O)cc1 [Example 4, N-{4-[4-(5-Chloro-2-hydroxy-phenyl)-2-oxo-6-trifluoromethyl-1,2-dihydro-quinolin-3-ylsulfanyl]-phenyl}-3-pyrrolidin-1-yl-propionamide]",264%,35%,,,
"O=C(CCN1CCC(N2CCCCC2)CC1)Nc1ccc(Sc2c(-c3cc(Cl)ccc3O)c3cc(C(F)(F)F)ccc3[nH]c2=O)cc1 [Example 13, N-[4-[[4-(5-chloro-2-hydroxyphenyl)-1,2-dihydro-2-oxo-6-(trifluoromethyl)-3-quinolinyl]thio]phenyl]-[1,4′-bipiperidine]-1′-propanamide]",255%,23%,,78%,
